According to ChEMBL document CHEMBL6087462, “Cuminaldehyde Potentiates Antiproteolytic Peptide Efficacy via Parallel Pathways of Enhanced Inner Membrane-Damaging Activity and Inhibition of Bacterial Energy Metabolism” (J Med Chem, 2025):

Assays:
Escherichia coli [1] = assay: Synergistic antimicrobial activity against Escherichia coli 25922 assessed as fractional inhibitory concentration index in presence of citronellal by checkerboard broth microdilution assay; assay type: functional
Escherichia coli [2] = assay: Synergistic antimicrobial activity against Escherichia coli 25922 assessed as fractional inhibitory concentration index in presence of citral by checkerboard broth microdilution assay; assay type: functional
Escherichia coli [3] = assay: Synergistic antimicrobial activity against Escherichia coli 25922 assessed as fractional inhibitory concentration index in presence of thymol by checkerboard broth microdilution assay; assay type: functional
Escherichia coli [4] = assay: Synergistic antimicrobial activity against Escherichia coli UB1005 assessed as fractional inhibitory concentration index in presence of citronellal by checkerboard broth microdilution assay; assay type: functional
Escherichia coli [5] = assay: Synergistic antimicrobial activity against Escherichia coli K88 assessed as fractional inhibitory concentration index in presence of cuminaldehyde by checkerboard broth microdilution assay; assay type: functional
Escherichia coli [6] = assay: Synergistic antimicrobial activity against Escherichia coli K88 assessed as fractional inhibitory concentration index in presence of perillaldehyde by checkerboard broth microdilution assay; assay type: functional
Escherichia coli [7] = assay: Synergistic antimicrobial activity against Escherichia coli K99 assessed as fractional inhibitory concentration index in presence of perillaldehyde by checkerboard broth microdilution assay; assay type: functional
Escherichia coli [8] = assay: Synergistic antimicrobial activity against Escherichia coli K99 assessed as fractional inhibitory concentration index in presence of thymol by checkerboard broth microdilution assay; assay type: functional
Escherichia coli [9] = assay: Synergistic antimicrobial activity against Escherichia coli K99 assessed as fractional inhibitory concentration index in presence of carvacrol by checkerboard broth microdilution assay; assay type: functional
Escherichia coli [10] = assay: Synergistic antimicrobial activity against Escherichia coli 078 assessed as fractional inhibitory concentration index in presence of cuminaldehyde by checkerboard broth microdilution assay; assay type: functional, 78
Escherichia coli [11] = assay: Synergistic antimicrobial activity against Escherichia coli 078 assessed as fractional inhibitory concentration index in presence of citronellal by checkerboard broth microdilution assay; assay type: functional, 78
Salmonella typhimurium [12] = assay: Synergistic antimicrobial activity against Salmonella typhimurium 14028 assessed as fractional inhibitory concentration index in presence of citronellal by checkerboard broth microdilution assay; assay type: functional, Salmonella enterica subsp. enterica serovar Typhimurium
Salmonella typhimurium [13] = assay: Synergistic antimicrobial activity against Salmonella typhimurium 14028 assessed as fractional inhibitory concentration index in presence of citral by checkerboard broth microdilution assay; assay type: functional, Salmonella enterica subsp. enterica serovar Typhimurium
Salmonella typhimurium [14] = assay: Synergistic antimicrobial activity against Salmonella typhimurium 14028 assessed as fractional inhibitory concentration index in presence of perillaldehyde by checkerboard broth microdilution assay; assay type: functional, Salmonella enterica subsp. enterica serovar Typhimurium
Salmonella typhimurium [15] = assay: Synergistic antimicrobial activity against Salmonella typhimurium 14028 assessed as fractional inhibitory concentration index in presence of thymol by checkerboard broth microdilution assay; assay type: functional, Salmonella enterica subsp. enterica serovar Typhimurium
Salmonella typhimurium [16] = assay: Synergistic antimicrobial activity against Salmonella typhimurium 7731 assessed as fractional inhibitory concentration index in presence of citronellal by checkerboard broth microdilution assay; assay type: functional, Salmonella enterica subsp. enterica serovar Typhimurium
[17] = Synergistic antimicrobial activity against Salmonella enterica subsp. enterica serovar Pullorum 7913 assessed as fractional inhibitory concentration index in presence of citronellal by checkerboard broth microdilution assay; assay type: functional
[18] = Synergistic antimicrobial activity against Salmonella enterica subsp. enterica serovar Pullorum 7913 assessed as fractional inhibitory concentration index in presence of citral by checkerboard broth microdilution assay; assay type: functional
Pseudomonas aeruginosa [19] = assay: Synergistic antimicrobial activity against Pseudomonas aeruginosa 27853 assessed as fractional inhibitory concentration index in presence of citronellal by checkerboard broth microdilution assay; assay type: functional
Staphylococcus aureus [20] = assay: Synergistic antimicrobial activity against Staphylococcus aureus 25923 assessed as fractional inhibitory concentration index in presence of carvacrol by checkerboard broth microdilution assay; assay type: functional
Staphylococcus aureus [21] = assay: Synergistic antimicrobial activity against Staphylococcus aureus 29213 assessed as fractional inhibitory concentration index in presence of cuminaldehyde by checkerboard broth microdilution assay; assay type: functional
Staphylococcus aureus [22] = assay: Synergistic antimicrobial activity against Staphylococcus aureus 29213 assessed as fractional inhibitory concentration index in presence of citral by checkerboard broth microdilution assay; assay type: functional
Staphylococcus aureus [23] = assay: Synergistic antimicrobial activity against Staphylococcus aureus 29213 assessed as fractional inhibitory concentration index in presence of perillaldehyde by checkerboard broth microdilution assay; assay type: functional
Staphylococcus aureus [24] = assay: Synergistic antimicrobial activity against Staphylococcus aureus 29213 assessed as fractional inhibitory concentration index in presence of carvacrol by checkerboard broth microdilution assay; assay type: functional
Staphylococcus aureus [25] = assay: Synergistic antimicrobial activity against Staphylococcus aureus 43300 assessed as fractional inhibitory concentration index in presence of citronellal by checkerboard broth microdilution assay; assay type: functional
Staphylococcus aureus [26] = assay: Synergistic antimicrobial activity against Staphylococcus aureus 43300 assessed as fractional inhibitory concentration index in presence of citral by checkerboard broth microdilution assay; assay type: functional
Escherichia coli [27] = assay: Antimicrobial activity against Escherichia coli K99 assessed as reduction in microbial growth by CLSI based broth microdilution method; assay type: functional
Escherichia coli [28] = assay: Antimicrobial activity against Escherichia coli 078 assessed as reduction in microbial growth by CLSI based broth microdilution method; assay type: functional
Salmonella typhimurium [29] = assay: Antimicrobial activity against Salmonella typhimurium ATCC 14028 assessed as reduction in microbial growth by CLSI based broth microdilution method; assay type: functional, Salmonella enterica subsp. enterica serovar Typhimurium; conditions: Salmonella enterica
[30] = tested on: Staphylococcus epidermidis; assay: Antimicrobial activity against Staphylococcus epidermidis ATCC 12228 assessed as reduction in microbial growth by CLSI based broth microdilution method; assay type: functional
Enterococcus faecalis = assay: Antimicrobial activity against Enterococcus faecalis ATCC 29212 assessed as reduction in microbial growth by CLSI based broth microdilution method; assay type: functional
Escherichia coli [31] = assay: Synergistic antimicrobial activity against Escherichia coli 078 assessed as fractional inhibitory concentration by checkerboard broth microdilution assay; assay type: functional
Salmonella typhimurium [32] = assay: Synergistic antimicrobial activity against Salmonella typhimurium ATCC 7731 assessed as fractional inhibitory concentration by checkerboard broth microdilution assay; assay type: functional, Salmonella enterica subsp. enterica serovar Typhimurium
[33] = tested on: Staphylococcus epidermidis; assay: Synergistic antimicrobial activity against Staphylococcus epidermidis ATCC 12228 assessed as fractional inhibitory concentration by checkerboard broth microdilution assay; assay type: functional
[34] = Antimicrobial activity against Salmonella enterica subsp. enterica serovar Pullorum ATCC 7913 assessed as reduction in microbial growth in presence of cuminaldehyde by CLSI based broth microdilution method; assay type: functional
Pseudomonas aeruginosa [35] = assay: Antimicrobial activity against Pseudomonas aeruginosa ATCC 27853 assessed as reduction in microbial growth in presence of cuminaldehyde by CLSI based broth microdilution method; assay type: functional
[36] = tested on: Staphylococcus epidermidis; assay: Antimicrobial activity against Staphylococcus epidermidis ATCC 12228 assessed as reduction in microbial growth in presence of cuminaldehyde by CLSI based broth microdilution method; assay type: functional
Escherichia coli [37] = assay: Antimicrobial activity against Escherichia coli K88 assessed as cuminaldehyde MIC by CLSI based broth microdilution method; assay type: functional
Escherichia coli [38] = assay: Antimicrobial activity against Escherichia coli K99 assessed as cuminaldehyde MIC by CLSI based broth microdilution method; assay type: functional
Escherichia coli [39] = assay: Antimicrobial activity against Escherichia coli 078 assessed as cuminaldehyde MIC by CLSI based broth microdilution method; assay type: functional; conditions: 78
Salmonella typhimurium [40] = assay: Antimicrobial activity against Salmonella typhimurium ATCC 14028 assessed as cuminaldehyde MIC by CLSI based broth microdilution method; assay type: functional, Salmonella enterica subsp. enterica serovar Typhimurium; conditions: Salmonella enterica
[41] = Antimicrobial activity against Salmonella enterica subsp. enterica serovar Pullorum ATCC 7913 assessed as cuminaldehyde MIC by CLSI based broth microdilution method; assay type: functional
Pseudomonas aeruginosa [42] = assay: Antimicrobial activity against Pseudomonas aeruginosa ATCC 27853 assessed as cuminaldehyde MIC by CLSI based broth microdilution method; assay type: functional

With `CC[C@H](C)[C@H](NC(=O)[C@@H](NC(=O)[C@@H](CCCNC(=N)N)NC(=O)[C@H](C)NC(=O)[C@H](C)NC(=O)[C@@H](N)Cc1cccc2ccccc12)[C@@H](C)CC)C(=O)N[C@@H](CC(C)C)C(=O)N[C@H](CCCNC(=N)N)C(=O)N[C@@H](Cc1c[nH]c2ccccc12)C(=O)N[C@H](CCCNC(=N)N)C(=O)N[C@@H](Cc1ccccc1)C(=O)N[C@@H](CCCNC(=N)N)C(=O)O` the “fractional inhibitory concentration index (FICI)” value (Escherichia coli [1]) was 0.25, the “fractional inhibitory concentration index (FICI)” value (Escherichia coli [2]) was 0.25 and the “fractional inhibitory concentration index (FICI)” value (Escherichia coli [3]) was 0.313. The “fractional inhibitory concentration index (FICI)” value (Escherichia coli [4]) was 0.266, the “fractional inhibitory concentration index (FICI)” value (Escherichia coli [5]) was 0.125 and the “fractional inhibitory concentration index (FICI)” value (Escherichia coli [6]) was 0.375. The “fractional inhibitory concentration index (FICI)” value (Escherichia coli [7]) was 0.375, the “fractional inhibitory concentration index (FICI)” value (Escherichia coli [8]) was 0.5 and the “fractional inhibitory concentration index (FICI)” value (Escherichia coli [9]) was 0.5. For the same molecule, the “fractional inhibitory concentration index (FICI)” value (Escherichia coli [10]) was 0.125, the “fractional inhibitory concentration index (FICI)” value (Escherichia coli [11]) was 0.156 and the “fractional inhibitory concentration index (FICI)” value (Salmonella typhimurium [12]) was 0.254. For the same molecule, the “fractional inhibitory concentration index (FICI)” value (Salmonella typhimurium [13]) was 0.141, the “fractional inhibitory concentration index (FICI)” value (Salmonella typhimurium [14]) was 0.254 and the “fractional inhibitory concentration index (FICI)” value (Salmonella typhimurium [15]) was 0.313. The “fractional inhibitory concentration index (FICI)” value (Salmonella typhimurium [16]) was 0.254, the “fractional inhibitory concentration index (FICI)” value [17] was 0.25 and the “fractional inhibitory concentration index (FICI)” value [18] was 0.25. The “fractional inhibitory concentration index (FICI)” value (Pseudomonas aeruginosa [19]) was 0.254, the “fractional inhibitory concentration index (FICI)” value (Staphylococcus aureus [20]) was 0.375 and the “fractional inhibitory concentration index (FICI)” value (Staphylococcus aureus [21]) was 0.094. The “fractional inhibitory concentration index (FICI)” value (Staphylococcus aureus [22]) was 0.385, the “fractional inhibitory concentration index (FICI)” value (Staphylococcus aureus [23]) was 0.25 and the “fractional inhibitory concentration index (FICI)” value (Staphylococcus aureus [24]) was 0.313. The “fractional inhibitory concentration index (FICI)” value (Staphylococcus aureus [25]) was 0.188, the “fractional inhibitory concentration index (FICI)” value (Staphylococcus aureus [26]) was 0.313 and the MIC (Escherichia coli [27]) was 8 µg/mL. It also gave an MIC (Escherichia coli [28]) of 8 µg/mL, an MIC (Salmonella typhimurium [29]) of 4 µg/mL and an MIC [30] of 4 µg/mL. It also gave an MIC (Enterococcus faecalis) of 8 µg/mL, an FIC (Escherichia coli [31]) of 0.063 and an FIC (Salmonella typhimurium [32]) of 0.063. For the same molecule, the FIC [33] was 0.25, the MIC [34] was 0.5 µg/mL and the MIC (Pseudomonas aeruginosa [35]) was 2 µg/mL. The MIC [36] was 4 µg/mL, the MIC (Escherichia coli [37]) was 1020 µg/mL and the MIC (Escherichia coli [38]) was 1020 µg/mL. The MIC (Escherichia coli [39]) was 1020 µg/mL, the MIC (Salmonella typhimurium [40]) was 1020 µg/mL and the MIC [41] was 1020 µg/mL. It also gave an MIC (Pseudomonas aeruginosa [42]) of 512 µg/mL.
